Measurements published in ChEMBL document CHEMBL5537195, “Novel Covalent Probe Selectively Targeting Glutathione Peroxidase 4 In Vivo: Potential Applications in Pancreatic Cancer Therapy” (J Med Chem, 2024).
Calls of active or inactive are those of the source. No cut-off for these calls is given here.

Legend:
[1] = system: ASPC1; experiment: Antitumor activity against human ASPC1 cells xenografted in NOD-SCID mouse assessed as reduction in tumor volume at 10 mg/kg, ip administered for 14 days; format: functional, organism-based; conditions: time 14.0 day
[2] = biological target: T1, Phospholipid hydroperoxide glutathione peroxidase GPX4 (Homo sapiens) (UniProt P36969); experiment: Competitive binding affinity to GPX4 in human ASPC1 cells at 0.2 uM incubated for 1 hr in presence of 4-(((4-(benzo[d]thiazol-2-yl)phenyl)(methyl)amino)methyl)-N-ethynyl-N-methylbenzenesulfonamide by immunofluorescence based confocal microscopic analysis; format: cell-based
T1 sequence (whole entry): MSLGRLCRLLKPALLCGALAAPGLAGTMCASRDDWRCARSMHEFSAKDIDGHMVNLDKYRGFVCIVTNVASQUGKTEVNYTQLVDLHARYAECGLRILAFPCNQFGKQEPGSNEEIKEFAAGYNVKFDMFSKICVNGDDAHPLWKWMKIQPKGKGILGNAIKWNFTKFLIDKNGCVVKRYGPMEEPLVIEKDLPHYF

[3] = system: Mus musculus; experiment: In vivo target engagement at GPX4 in SCID mouse at 10 mg/kg, ip qd administered for 14 days and measured after 2 hrs by SDS-PAGE analysis; format: functional, organism-based; conditions: time 14.0 day

**Q.** What does the source list for `C#CCN(Cc1ccc(S(=O)(=O)N(C)C#C)cc1)c1ccc(-c2nc3ccccc3s2)cc1`?
**A.** Activity [1]: Active; Activity [2]: inactive; Activity [3]: Active
